The text below walks through data of PubChem BioAssay (NCI).

Test systems include CAKI-1 renal; HCT-116 colon; NCI-H226 lung; NCI/ADR-RES ovarian; SK-MEL-28 melanoma; UO-31 renal; BT-549 breast; EKVX NSCLC.
Test in all cases: NCI-60 cell line screen, 48 h

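Cultured in 96-well plates, cells were exposed to test compound for 48 hours across five concentrations. At the GI50, growth is halved. TGI denotes the concentration required for complete inhibition of growth.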

In the case of `O=C1c2ccn(CCCCN3CCOCC3)c2C(=O)c2c1c(O)c1ccccc1c2O`, the GI50 in the test with CAKI-1 renal is 5.94 µM; with HCT-116 colon it was 7.03 µM; in the test with NCI-H226 lung, 5.32 µM; with NCI/ADR-RES ovarian it was 4.44 µM; with SK-MEL-28 melanoma, 25.8 µM; in the test with UO-31 renal, 27.5 µM. Also, the TGI was 21 µM with CAKI-1 renal; 19.9 µM in the test on HCT-116 colon; 42.5 µM in the test with NCI-H226 lung; 23.8 µM in the test on NCI/ADR-RES ovarian; > 100 µM in the test on SK-MEL-28 melanoma; > 100 µM in the test with UO-31 renal.
For the compound `COc1ccc(C2C3=C(NC(=O)C2C#N)c2ccc4ccccc4c2OCC3)cc1` (configuration not stated), the GI50 with BT-549 breast is 20.4 µM; with CAKI-1 renal, 33.8 µM; with EKVX NSCLC it was 15.8 µM; in the test with HCT-116 colon, 35.8 µM; in the test on NCI/ADR-RES ovarian, 31.3 µM; in the test with SK-MEL-28 melanoma, 42.3 µM. Besides, in the test on UO-31 renal, the GI50 is 64.1 µM. Also, the TGI was 60.6 µM in the test on BT-549 breast; 70.3 µM in the test with CAKI-1 renal; 50.1 µM in the test on EKVX NSCLC; > 100 µM in the test with HCT-116 colon; > 100 µM in the test with NCI/ADR-RES ovarian; > 100 µM with SK-MEL-28 melanoma. For the same compound, in the test on UO-31 renal, the TGI was > 100 µM.
With `COC(=O)c1cnc2nc(N3CCOCC3)[nH]n2c1=O`, the TGI in the test with CAKI-1 renal, with EKVX NSCLC, in the test on HCT-116 colon, in the test with NCI-H226 lung, with SK-MEL-28 melanoma and in the test with UO-31 renal was > 100 µM each time.
As to `O=C1Nc2ccc(Cl)cc2/C1=C\c1c(-c2ccc(F)cc2)nc2ccccn12`, the GI50 was 2.46 µM in the test with BT-549 breast; 2.25 µM with CAKI-1 renal; 3.08 µM with EKVX NSCLC; 2.07 µM in the test on NCI-H226 lung; 2.3 µM in the test with NCI/ADR-RES ovarian; 3.33 µM in the test on SK-MEL-28 melanoma. Moreover, the GI50 in the test on UO-31 renal is 2.1 µM. Moreover, the TGI with BT-549 breast was found to be 6.72 µM; in the test with CAKI-1 renal it was 6.45 µM; in the test on EKVX NSCLC, 58.1 µM; in the test on NCI-H226 lung it was 5.21 µM; with NCI/ADR-RES ovarian, 7.06 µM; in the test with SK-MEL-28 melanoma it was 15.3 µM. Further, in the test on UO-31 renal, the TGI came out at 5.61 µM.
For `Cn1ncc2cc(-c3cnc(N)c(Cl)c3N3CCC4(CCNC4=O)CC3)ccc21`, the GI50 is 29.2 µM in the test with BT-549 breast; 12.9 µM in the test on EKVX NSCLC; 37.4 µM in the test on HCT-116 colon; 38.1 µM in the test with NCI-H226 lung; 32.8 µM in the test on NCI/ADR-RES ovarian; 33 µM in the test on SK-MEL-28 melanoma. Besides, the GI50 with UO-31 renal was 17.7 µM. Moreover, the TGI in the test with BT-549 breast, in the test with EKVX NSCLC, in the test with HCT-116 colon, in the test with NCI-H226 lung, with NCI/ADR-RES ovarian and with SK-MEL-28 melanoma was > 100 µM each time. Further, in the test on UO-31 renal, the TGI was > 100 µM.
Consider `COC1=CC(c2ccc[nH]2)=N/C1=C\c1[nH]c(C)c(C(=O)CCC(=O)Oc2ccc3c(c2)CCC2C3CC[C@]3(C)C(=O)CC[C@@H]23)c1C` (some centres not stated), for which the GI50 in the test with BT-549 breast was 15.5 µM; with CAKI-1 renal it was 8.77 µM; in the test on HCT-116 colon, 0.773 µM; with NCI-H226 lung it was 10.9 µM; in the test with NCI/ADR-RES ovarian it was 12.6 µM; in the test with SK-MEL-28 melanoma, > 70.9 µM. Also, in the test on UO-31 renal, the GI50 is 3.95 µM. The TGI with BT-549 breast was > 100 µM; in the test on CAKI-1 renal, > 100 µM; in the test with HCT-116 colon it was > 100 µM; in the test on NCI-H226 lung, > 58.6 µM; with NCI/ADR-RES ovarian, > 100 µM; in the test with SK-MEL-28 melanoma, > 100 µM. In the test with UO-31 renal, this compound came in with a TGI of 30 µM.
As to `COc1cc(-c2c3c(cn2S(=O)(=O)c2ccccc2)-c2nc(N)sc2CC3)cc(OC)c1OC`, the GI50 in the test on BT-549 breast is 2.75 µM; with CAKI-1 renal it was 0.724 µM; with HCT-116 colon it was 0.515 µM; in the test on NCI-H226 lung, 11.2 µM; in the test on NCI/ADR-RES ovarian, 0.612 µM; in the test with SK-MEL-28 melanoma, 1.12 µM. Moreover, the GI50 in the test on UO-31 renal was 2.98 µM. For the same compound, the TGI is 43.1 µM in the test on BT-549 breast; 36.6 µM in the test on CAKI-1 renal; 21.3 µM in the test with HCT-116 colon; 47.4 µM in the test with NCI-H226 lung; > 100 µM in the test on NCI/ADR-RES ovarian; 29.8 µM with SK-MEL-28 melanoma. Further, the TGI in the test with UO-31 renal was > 100 µM.
Turning to `COc1ccc2c(c1)Oc1nc(N)c(C#N)c(N)c1C2Sc1ccc(SC)cc1` (configuration not stated), the GI50 is 1.63 µM with BT-549 breast; 1.66 µM in the test on EKVX NSCLC; 1.76 µM in the test on HCT-116 colon; 1.92 µM with NCI-H226 lung; 2.42 µM with NCI/ADR-RES ovarian; 1.71 µM with SK-MEL-28 melanoma. Also, in the test with UO-31 renal, the GI50 was 1.51 µM. Further, the TGI was 3 µM in the test on BT-549 breast; 3.09 µM in the test with EKVX NSCLC; 3.24 µM in the test on HCT-116 colon; 3.58 µM in the test with NCI-H226 lung; 6.05 µM in the test with NCI/ADR-RES ovarian; 3.15 µM in the test with SK-MEL-28 melanoma. This compound came in with a TGI in the test with UO-31 renal of 2.84 µM.
In the case of `CO/N=C(\c1ccccc1)c1cnn(-c2ccccc2)c1N`, the GI50 in the test with BT-549 breast, in the test with CAKI-1 renal, in the test on HCT-116 colon, in the test on NCI-H226 lung, with NCI/ADR-RES ovarian and with SK-MEL-28 melanoma was > 25 µM throughout. Besides, the GI50 with UO-31 renal was > 25 µM. For the same compound, the TGI with BT-549 breast, in the test on CAKI-1 renal, in the test with HCT-116 colon, in the test with NCI-H226 lung, in the test on NCI/ADR-RES ovarian and in the test on SK-MEL-28 melanoma was > 25 µM throughout. In addition, the TGI in the test with UO-31 renal is > 25 µM.
As for `O=C(NO)c1ccc(C(=O)NO)cc1`, the TGI is > 100 µM in the test with CAKI-1 renal; > 100 µM with EKVX NSCLC; > 100 µM with HCT-116 colon; > 100 µM with NCI-H226 lung; 26.2 µM in the test on NCI/ADR-RES ovarian; > 100 µM in the test with SK-MEL-28 melanoma. In addition, in the test with UO-31 renal, the TGI was > 100 µM.
As for `COc1ccc(-c2cc3c4c(nc5ccccc5c4c2)CC(c2cc(OC)c(OC)c(OC)c2)O3)cc1` (configuration not stated), the GI50 in the test with BT-549 breast was 2.92 µM; with CAKI-1 renal it was 1.52 µM; with EKVX NSCLC, 5.01 µM; in the test on HCT-116 colon, 1.31 µM; in the test on NCI-H226 lung, 1.71 µM; with NCI/ADR-RES ovarian, 3.03 µM. The GI50 in the test with SK-MEL-28 melanoma is 2.36 µM. Besides, the TGI is 31.7 µM in the test with BT-549 breast; 3.06 µM in the test with CAKI-1 renal; > 100 µM in the test on EKVX NSCLC; 4.15 µM in the test with HCT-116 colon; 3.89 µM with NCI-H226 lung; 47.3 µM in the test with NCI/ADR-RES ovarian. Also, in the test on SK-MEL-28 melanoma, the TGI is 6.62 µM.
